Reference: patent US8759481B2, “Peptide vaccines for cancers expressing tumor-associated antigens” (Oncotherapy Science, Inc., priority 2007, dated 2014)
“Also recorded” adds a separate entry of the source. Ends that are not written are not given here.

Key:
Type in all cases: cell-based, human
[1] = system: peptide-pulsed A24-LCL cells; experiment: CTL line establishment, IFN-gamma ELISA; settings: HLA-A24 peptides; vs target without peptide pulse
How it was run: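 Peptide-pulsed A24-LCL or T2 cells (1×10^4/well) served as stimulators for responder cells from 48-well cultures or limiting-dilution CTL clones. Positive wells scored by IFN-gamma ELISPOT; CTL line establishment from positive wells confirmed by IFN-gamma ELISA; lines expanded with anti-CD3 (40 ng/ml), IL-2 and MMC-inactivated B-LCL feeders.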

[2] = system: peptide-pulsed A24-LCL cells; experiment: CTL clones by limiting dilution, specific CTL activity; settings: HLA-A24 peptides; vs target without peptide pulse
Experimental: (§1) The dilutions were made to have 0.3, 1, and 3 CTLs/well in 96 round-bottomed micro titer plate (Nalge Nunc International). CTLs were cultured with 7×10^4 cells/well of 2 kinds of human B-lymphoblastoid cell lines, 30 ng/ml of anti-CD3 antibody, and 125 U/ml of IL-2 in total of 150 micro 1/well of AIM-V containing 5% AS. 50 micro 1/well of IL-2 was added to the medium 10 days later so that IL-2 became 125 U/ml in the final concentration. CTL activity of CTLs was tested on the 14th day, and CTL clones were expanded using the same method above.
(§2) Briefly, peptide-pulsed A24-LCL or T2 cell (1×10^4/well) was prepared as stimulator cells. Cultured Cells in 48 wells or CTL clones after limiting dilution were used as responder cells. IFN-gamma ELISPOT assay and ELISA assay were performed under manufacture procedure.

[3] = system: peptide-pulsed A24-LCL cells; experiment: IFN-gamma ELISPOT assay (positive wells); settings: HLA-A24 peptides; as compared to the control
How it was run: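 PBMC-derived DCs from HLA-A*2402 and/or A*0201 donors, pulsed with 20 micro g/ml peptide plus 3 micro g/ml beta 2-microglobulin, stimulated autologous CD8+ T cells three times (days 0, 7, 14). On day 21, responders were tested against peptide-pulsed A24-LCL or T2 cells by IFN-gamma ELISPOT. Values are reported as positive wells/wells tested; CTL lines confirmed by ELISA.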

[4] = system: 293T transfected with full length INHBB gene and HLA-A*2402; experiment: Specific CTL activity against transfected target cells; settings: CTL line or clone raised by the peptide, vs control transfectants
Experimental: as §2
(§3) The cDNA encoding an open reading frame of target genes or HLA-A02 or HLA-A24 was amplified by PCR. The PCR-amplified product was cloned into pcDNA3.1 myc-His vector (Invitrogen). The plasmids were transfected into the target cells, HLA-A02 and HLA-A24-null normal human cell line COS7 or 293T using lipofectamine (Invitrogen) according to the manufacturer's recommended procedures. Alternatively, the plasmid contained the target genes were transfected into A24-LCL by electroporation using GenePulserII (Biorad). Briefly, 2.5×10^6 A24-LCL cells were pulsed with 10 mcg prasmid at 140V and 1000 micro F. After 2 days from transfection, the transfected cells were treated with Cell dissociation solution and used as the target cells for CTL activity assay.
The established CTL line raised against these peptides were examined for their ability to recognize the target cells expressing INHBB and HLA-A*2402.

[5] = system: COS7 transfected with full length ECT2 gene and HLA-A*2402; experiment: as above; settings: CTL clone or line raised by the peptide, vs control transfectants
Experimental: as §2, §3
The established CTL line raised against these peptides were examined for their ability to recognize the target cells expressing ECT2 and HLA-A*2402. […] COS7 transfected with full length ECT2 but not HLA-A*2402 and COS7 transfected with HLA-A*2402 but not full length ECT2 (replaced other gene e.g. URLC10 or INHBB) were prepared as controls.

[6] = system: COS7 transfected with full length CDH3 gene and HLA-A*2402; experiment: as above; settings: CTL clones raised by the peptide, vs single transfectants
Experimental: as §2, §3
The established CTL line raised against these peptides were examined for their ability to recognize the target cells expressing CDH3 and HLA-A*2402. […] COS7 transfected with full length CDH3 but not HLA-A*2402 and COS7 transfected with HLA-A*2402 but not full length CDH3 were prepared as controls.

[7] = system: COS7 transfected with full length TTK gene and HLA-A*0201; experiment: as above; settings: vs control transfectants
Experimental: as §2, §3
The established CTL clone raised against these peptides were examined for their ability to recognize the target cells endogenously expressing TTK and HLA-A*0201. […] COS7 transfected with full length TTK but HLA-A*0201, COS7 transfected HLA-A*0201 but not full length of TTK (or replaced full length HIG2 gene) and COS7 transfected with HLA-A*0201 and pulsed with different target epitope peptide, were prepared as controls.

[8] = system: peptide-pulsed T2 cells; experiment: CTL clones by limiting dilution, specific CTL activity; settings: HLA-A02 peptides; vs target without peptide pulse
Experimental: as §1, §2

[9] = system: peptide-pulsed T2 cells; experiment: CTL line establishment, IFN-gamma ELISA; settings: HLA-A02 peptides; vs target without peptide pulse
Experimental: CTLs were expanded in culture using the method similar to that described by Riddell S R, et al., (Walter E A et al., (1995) N Engl J Med 333:1038-44; Riddel S R, et al., (1996) Nature Med. 2:216-23.). A total 5×10^4 of CTLs were resuspended in 25 ml of AIM-V/5% AS with 2 kinds of human B-lymphoblastoid cell lines, inactivated by MMC, in the presence of 40 ng/ml of anti-CD3 monoclonal antibody (Pharmingen). One day after initiating the cultures, 120 IU/ml of IL-2 were added to the cultures. The cultures were fed with fresh AIM-V/5% AS containing 30 IU/ml of IL-2 on days 5, 8 and 11.
as §2
Positive well number indicates the number of wells where specific IFN-gamma production can be detected by IFN-gamma ELISPOT assay. 4 to 8 wells can be prepared from one donor. This is shown as (positive wells number/the number of whole wells tested by IFN-gamma ELISPOT assay). Positive CTL line indicates the number of CTL line established from positive wells. The generation of CTL line is determined by ELISA. This is shown as (established CTL line number/the number of positive wells tested by IFN-gamma ELISPOT assay). No positive donor is not defined by no detectable positive wells, but by no established CTL line. […] No data at positive donor number, positive well number and positive CTL line indicating “−” means that the peptides can't be synthesized for any reason.
CTLs were expanded in culture using the method similar to the one described by Riddell et al. (Walter E A et al., N Engl J Med 1995 Oct. 19, 333(16): 1038-44; Riddell S R et al., Nat Med 1996 Feb., 2(2): 216-23). A total of 5×10^4 CTLs were suspended in 25 ml of AIM-V/5% AS medium with 2 kinds of human B-lymphoblastoid cell lines, inactivated by MMC, in the presence of 40 ng/ml of anti-CD3 monoclonal antibody (Pharmingen). One day after initiating the cultures, 120 IU/ml of IL-2 were added to the cultures. The cultures were fed with fresh AIM-V/5% AS medium containing 30 IU/ml of IL-2 on days 5, 8 and 11 (Tanaka H et al., Br J Cancer 2001 Jan. 5, 84(1): 94-9; Umano Y et al., Br J Cancer 2001 Apr. 20, 84(8): 1052-7; Uchida N et al., Clin Cancer Res 2004 Dec. 15, 10(24): 8577-86; Suda T et al., Cancer Sci 2006 May, 97(5): 411-9; Watanabe T et al., Cancer Sci 2005 August, 96(8): 498-506).
Specifically, peptide-pulsed T2 (1×10^4/well) was prepared as stimulator cells. Cultured cells in 48 wells were used as responder cells. IFN-gamma ELISPOT assay and IFN-gamma ELISA assay were performed under manufacture procedure.

[10] = system: peptide-pulsed T2 cells; experiment: IFN-gamma ELISPOT assay (positive wells); settings: HLA-A02 peptides; as compared to the control
How it was run: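 CD8+ T cells from HLA-A*2402 and/or HLA-A*0201 donors were stimulated 1:20 with autologous monocyte-derived DCs pulsed with 20 µg/ml peptide plus β2-microglobulin, in IL-7, with IL-2 added, restimulated on days 7 and 14. On day 21, IFN-γ ELISPOT against peptide-pulsed T2 or A24-LCL cells (1×10^4/well) scored wells as positive, with CTL lines confirmed by ELISA.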

Substance: SEQ ID NO: 135: HLA-A*2402 binding 10-mer peptide derived from INHBB (RQQFFIDFRL)
- Establishment of CTL line, specific CTL activity against the peptide-pulsed target determined by ELISA [1]: CTL lines were established
- CTL activities of CTL clones against the peptide-pulsed target [2]: potent and specific CTL activities
- IFN-gamma production by IFN-gamma ELISPOT assay [3]: potent IFN-gamma production
- Specific CTL activity against 293T transfected with both INHBB and HLA-A24 ([4]; listed as INHBB-A24-10-305): highest specific CTL activity; also recorded: high specific CTL activity

Substance: SEQ ID NO: 133: HLA-A*2402 binding 10-mer peptide derived from INHBB (LYLKLLPYVL)
- Establishment of CTL line, specific CTL activity against the peptide-pulsed target determined by ELISA [1]: CTL lines were established
- IFN-gamma production by IFN-gamma ELISPOT assay [3]: potent IFN-gamma production
- Specific CTL activity against 293T transfected with both INHBB and HLA-A24 ([4]; listed as INHBB-A24-10-180): highest specific CTL activity; also recorded: high specific CTL activity

Substance: SYVEeEMPQI (SYVEEEMPQI; not fully specified; printed as SYVEeEMPQI) [SEQ ID NO: 100]
- Establishment of CTL line, specific CTL activity against the peptide-pulsed target determined by ELISA [1]: CTL lines were established
- CTL activities of CTL clones against the peptide-pulsed target [2]: potent and specific CTL activities
- IFN-gamma production by IFN-gamma ELISPOT assay [3]: potent IFN-gamma production
- Specific CTL activity against COS7 transfected with both ECT2 and HLA-A24 ([5]; listed as ECT2-A24-10-40): highest specific CTL activity; also recorded: high specific CTL activity

Substance: DYLNeWGSRF (DYLNEWGSRF; not fully specified; printed as DYLNeWGSRF) [SEQ ID NO: 30]
- Establishment of CTL line, specific CTL activity against the peptide-pulsed target determined by ELISA [1]: CTL lines were established
- CTL activities of CTL clones against the peptide-pulsed target [2]: potent and specific CTL activities
- IFN-gamma production by IFN-gamma ELISPOT assay [3]: potent IFN-gamma production
- Specific CTL activity against COS7 transfected with both CDH3 and HLA-A24 ([6]; listed as CDH3-A24-10-807): highest specific CTL activity; also recorded: high specific CTL activity

Substance: FILPvLGAVL (FILPVLGAVL; not fully specified; printed as FILPvLGAVL) [SEQ ID NO: 344]
- Establishment of CTL line, specific CTL activity against the peptide-pulsed target determined by ELISA [1]: CTL lines were established
- CTL activities of CTL clones against the peptide-pulsed target [2]: potent and specific CTL activities
- IFN-gamma production by IFN-gamma ELISPOT assay [3]: potent IFN-gamma production
- Specific CTL activity against COS7 transfected with both CDH3 and HLA-A24 ([6]; listed as CDH3-A24-10-655): highest specific CTL activity; also recorded: high specific CTL activity

Substance: SEQ ID NO: 227: HLA-A*0201 binding 9-mer peptide derived from TTK (YMSCFRTPV)
- Specific CTL activity against COS7 transfected with both TTK and HLA-A02 ([7]; listed as TTK-A02-9-462): high specific CTL activity
- Specific CTL activity against COS7 transfected with both TTK and HLA-A02 ([7]; listed as TTK-A2-9-462): highest specific CTL activity
- CTL activities of CTL clones against the peptide-pulsed target [8]: potent and specific CTL activities
- Establishment of CTL line, specific CTL activity against the peptide-pulsed target determined by ELISA [9]: specific response
- IFN-gamma production by IFN-gamma ELISPOT assay [10]: potent IFN-gamma production

Substance: SEQ ID NO: 137: HLA-A*2402 binding 10-mer peptide derived from INHBB (RALGAACLLL)
- Establishment of CTL line, specific CTL activity against the peptide-pulsed target determined by ELISA [1]: CTL lines were established
- IFN-gamma production by IFN-gamma ELISPOT assay [3]: potent IFN-gamma production
- Specific CTL activity against 293T transfected with both INHBB and HLA-A24 ([4]; listed as INHBB-A24-10-7): highest specific CTL activity

Substance: SEQ ID NO: 228: HLA-A*0201 binding 9-mer peptide derived from TTK (KQIYAIKYV)
- Specific CTL activity against COS7 transfected with both TTK and HLA-A02 ([7]; listed as TTK-A02-9-547): highest specific CTL activity
- CTL activities of CTL clones against the peptide-pulsed target [8]: potent and specific CTL activities
- Establishment of CTL line, specific CTL activity against the peptide-pulsed target determined by ELISA [9]: CTL line and clones were established
- IFN-gamma production by IFN-gamma ELISPOT assay [10]: potent IFN-gamma production

Substance: DFQDsVFNDL (DFQDSVFNDL; not fully specified; printed as DFQDsVFNDL) [SEQ ID NO: 101]
- Establishment of CTL line, specific CTL activity against the peptide-pulsed target determined by ELISA [1]: CTL lines were established
- IFN-gamma production by IFN-gamma ELISPOT assay [3]: potent IFN-gamma production
- Specific CTL activity against COS7 transfected with both ECT2 and HLA-A24 ([5]; listed as ECT2-A24-10-101): highest specific CTL activity; also recorded: high specific CTL activity
